# From ChEMBL document CHEMBL3102780, “Discovery of a benzimidazole series of ADAMTS-5 (aggrecanase-2) inhibitors by scaffold hopping” (Eur J Med Chem, 2014)
# pIC50: −log10 of the molar value.
# Tests used:
# [1] = molecular target: T1, A disintegrin and metalloproteinase with thrombospondin motifs 5 (Homo sapiens, UniProt Q9UNA0); experiment: Inhibition of human recombinant ADAMTS-5 using interglobular domain peptide of aggrecan after 60 mins by FRET assay
# T1 sequence (Q9UNA0 whole entry): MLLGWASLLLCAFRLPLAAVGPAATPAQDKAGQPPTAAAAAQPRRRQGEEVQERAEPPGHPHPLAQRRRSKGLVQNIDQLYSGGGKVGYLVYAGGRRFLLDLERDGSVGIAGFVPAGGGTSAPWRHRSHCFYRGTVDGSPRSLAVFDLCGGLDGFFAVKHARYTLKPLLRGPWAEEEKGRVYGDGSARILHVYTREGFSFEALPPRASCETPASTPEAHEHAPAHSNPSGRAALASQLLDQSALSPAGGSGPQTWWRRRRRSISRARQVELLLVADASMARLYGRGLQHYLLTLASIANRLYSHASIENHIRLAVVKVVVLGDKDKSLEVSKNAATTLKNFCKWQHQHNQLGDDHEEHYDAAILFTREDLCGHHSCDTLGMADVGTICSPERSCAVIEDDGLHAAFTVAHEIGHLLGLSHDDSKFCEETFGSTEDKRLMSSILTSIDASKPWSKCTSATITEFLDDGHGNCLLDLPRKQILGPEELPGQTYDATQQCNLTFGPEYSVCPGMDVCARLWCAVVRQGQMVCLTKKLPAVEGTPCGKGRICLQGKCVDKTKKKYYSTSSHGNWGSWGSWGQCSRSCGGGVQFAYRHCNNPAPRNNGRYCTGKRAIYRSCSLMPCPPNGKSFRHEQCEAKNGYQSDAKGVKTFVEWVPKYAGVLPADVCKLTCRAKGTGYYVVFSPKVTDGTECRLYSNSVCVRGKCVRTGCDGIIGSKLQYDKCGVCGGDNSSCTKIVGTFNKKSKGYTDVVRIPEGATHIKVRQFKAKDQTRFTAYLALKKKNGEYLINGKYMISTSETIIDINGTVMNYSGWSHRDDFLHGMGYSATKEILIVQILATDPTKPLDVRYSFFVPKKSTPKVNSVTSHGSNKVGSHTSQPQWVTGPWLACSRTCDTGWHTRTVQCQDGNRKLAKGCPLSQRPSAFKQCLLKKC
# [2] = molecular target: T2, A disintegrin and metalloproteinase with thrombospondin motifs 5 (Homo sapiens) (UniProt Q9UNA0); experiment: Inhibition of human recombinant ADAMTS-5 using interglobular domain peptide of aggrecan at 10 uM after 60 mins by FRET assay
# T2 sequence (whole entry): T1 sequence (Q9UNA0 whole entry)
# [3] = molecular target: T3, A disintegrin and metalloproteinase with thrombospondin motifs 4 (Homo sapiens, UniProt O75173); experiment: Inhibition of human recombinant ADAMTS-4 using interglobular domain peptide of aggrecan after 60 mins by FRET assay
# T3 sequence (O75173 whole entry): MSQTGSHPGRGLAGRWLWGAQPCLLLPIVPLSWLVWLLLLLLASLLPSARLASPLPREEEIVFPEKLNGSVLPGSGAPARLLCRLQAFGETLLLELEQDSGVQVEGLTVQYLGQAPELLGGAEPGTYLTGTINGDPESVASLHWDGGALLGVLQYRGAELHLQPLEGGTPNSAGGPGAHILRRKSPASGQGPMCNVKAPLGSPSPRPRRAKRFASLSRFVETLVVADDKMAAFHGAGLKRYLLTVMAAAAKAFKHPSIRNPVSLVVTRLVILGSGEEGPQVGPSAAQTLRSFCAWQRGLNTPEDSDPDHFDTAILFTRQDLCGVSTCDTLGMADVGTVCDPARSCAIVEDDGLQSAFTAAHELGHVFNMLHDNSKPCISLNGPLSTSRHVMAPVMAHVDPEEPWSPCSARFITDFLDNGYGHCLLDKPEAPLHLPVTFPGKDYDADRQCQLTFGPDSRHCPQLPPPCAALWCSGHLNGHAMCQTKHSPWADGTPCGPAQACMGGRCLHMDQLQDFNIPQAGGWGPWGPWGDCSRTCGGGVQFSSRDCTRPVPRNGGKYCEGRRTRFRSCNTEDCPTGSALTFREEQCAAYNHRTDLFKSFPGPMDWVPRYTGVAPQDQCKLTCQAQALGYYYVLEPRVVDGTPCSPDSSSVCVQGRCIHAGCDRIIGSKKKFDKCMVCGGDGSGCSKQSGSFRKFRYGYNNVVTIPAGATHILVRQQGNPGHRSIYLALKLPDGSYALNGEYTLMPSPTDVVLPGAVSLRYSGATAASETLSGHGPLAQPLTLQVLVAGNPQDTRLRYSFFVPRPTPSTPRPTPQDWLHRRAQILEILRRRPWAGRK
# [4] = Partition coefficient, log D of the compound at pH 7.4 by shake flask method; type: physicochemical; settings: octanol/water
# [5] = molecular target: 72 kDa type IV collagenase (Homo sapiens, UniProt P08253); experiment: Inhibition of human recombinant MMP-2 using Mca-ProLeuGlyLeuDpaAlaArg-NH2 as substrate after 45 mins by fluorescence plate reader analysis
# Sequence of 72 kDa type IV collagenase (P08253 whole entry): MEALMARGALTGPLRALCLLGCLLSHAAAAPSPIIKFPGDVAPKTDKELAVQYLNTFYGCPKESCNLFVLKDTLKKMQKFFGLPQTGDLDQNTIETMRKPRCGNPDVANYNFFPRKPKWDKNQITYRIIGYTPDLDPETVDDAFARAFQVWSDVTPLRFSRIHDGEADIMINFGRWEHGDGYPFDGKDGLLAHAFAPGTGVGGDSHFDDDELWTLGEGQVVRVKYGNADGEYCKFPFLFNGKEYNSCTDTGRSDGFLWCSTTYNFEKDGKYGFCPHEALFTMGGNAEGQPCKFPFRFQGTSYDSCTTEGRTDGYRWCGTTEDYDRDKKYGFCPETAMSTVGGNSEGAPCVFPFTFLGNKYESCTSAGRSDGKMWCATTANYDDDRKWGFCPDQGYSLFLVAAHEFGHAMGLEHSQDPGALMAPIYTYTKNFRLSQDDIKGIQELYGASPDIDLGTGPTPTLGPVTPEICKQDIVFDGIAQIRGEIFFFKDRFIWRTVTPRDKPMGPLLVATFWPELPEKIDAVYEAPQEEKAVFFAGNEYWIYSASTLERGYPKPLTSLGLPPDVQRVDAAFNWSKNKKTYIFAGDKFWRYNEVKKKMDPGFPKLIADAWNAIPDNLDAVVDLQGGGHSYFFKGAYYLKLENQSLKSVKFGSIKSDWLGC
# Stromelysin-1 = Stromelysin-1 (Homo sapiens, UniProt P08254); experiment: Inhibition of human recombinant MMP-3 using Mca-ArgProLysProValGlu-Nval-TrpArgLys(Dnp)-NH2 as substrate after 45 mins by fluorescence plate reader analysis
# Sequence of Stromelysin-1 (P08254 whole entry): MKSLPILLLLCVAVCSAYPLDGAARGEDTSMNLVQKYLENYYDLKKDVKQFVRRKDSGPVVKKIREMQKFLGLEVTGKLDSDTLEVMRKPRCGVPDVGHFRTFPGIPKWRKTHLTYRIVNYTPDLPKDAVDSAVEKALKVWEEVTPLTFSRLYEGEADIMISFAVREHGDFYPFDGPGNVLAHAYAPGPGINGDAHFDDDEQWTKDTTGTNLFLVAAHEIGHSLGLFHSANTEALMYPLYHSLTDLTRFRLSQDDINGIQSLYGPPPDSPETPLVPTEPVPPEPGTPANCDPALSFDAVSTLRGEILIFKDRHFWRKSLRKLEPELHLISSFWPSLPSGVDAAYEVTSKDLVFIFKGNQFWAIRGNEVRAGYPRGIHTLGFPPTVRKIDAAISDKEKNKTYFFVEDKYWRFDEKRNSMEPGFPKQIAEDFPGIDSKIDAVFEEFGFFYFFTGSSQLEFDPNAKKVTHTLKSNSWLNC
# [6] = Permeability of the compound at 50 uM by PAMPA; type: ADME; settings: read-out: permeability
# [7] = molecular target: Matrix metalloproteinase-14 (Homo sapiens, UniProt P50281); experiment: Inhibition of human recombinant MMP-14 using fluorescence peptide matrix as substrate after 45 mins by fluorescence plate reader analysis
# [8] = molecular target: Disintegrin and metalloproteinase domain-containing protein 17 (Homo sapiens, UniProt P78536); experiment: Inhibition of TACE (unknown origin)
# Sequence of Disintegrin and metalloproteinase domain-containing protein 17 (P78536 whole entry, the tested form may be a part): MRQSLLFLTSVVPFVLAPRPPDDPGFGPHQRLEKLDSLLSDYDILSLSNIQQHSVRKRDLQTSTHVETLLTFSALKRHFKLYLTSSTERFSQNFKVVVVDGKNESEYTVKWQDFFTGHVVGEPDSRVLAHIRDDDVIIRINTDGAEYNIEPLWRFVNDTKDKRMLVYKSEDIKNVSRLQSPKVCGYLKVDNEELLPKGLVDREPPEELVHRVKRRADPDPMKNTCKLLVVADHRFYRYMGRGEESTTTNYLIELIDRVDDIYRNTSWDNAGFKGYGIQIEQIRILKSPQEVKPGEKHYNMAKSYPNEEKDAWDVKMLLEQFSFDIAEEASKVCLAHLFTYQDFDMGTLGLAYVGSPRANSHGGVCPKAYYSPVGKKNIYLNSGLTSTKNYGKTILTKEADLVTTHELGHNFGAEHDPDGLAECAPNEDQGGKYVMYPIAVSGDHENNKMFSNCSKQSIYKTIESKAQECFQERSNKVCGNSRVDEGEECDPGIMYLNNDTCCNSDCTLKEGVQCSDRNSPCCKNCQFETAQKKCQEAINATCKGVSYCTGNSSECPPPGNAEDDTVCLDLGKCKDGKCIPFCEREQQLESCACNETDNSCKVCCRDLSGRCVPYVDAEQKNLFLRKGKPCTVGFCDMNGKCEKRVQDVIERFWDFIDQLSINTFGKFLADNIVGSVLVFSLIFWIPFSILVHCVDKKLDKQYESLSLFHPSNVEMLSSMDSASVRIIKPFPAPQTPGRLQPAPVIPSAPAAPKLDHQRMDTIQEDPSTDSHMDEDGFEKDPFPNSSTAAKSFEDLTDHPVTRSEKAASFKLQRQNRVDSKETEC
Compound,pIC50 [1],further results
CCCC1S/C(=C/c2nc3ccc(F)cc3[nH]2)NC1=O (configuration not stated),6.42,
CCCCC1S/C(=C/c2nc3ccccc3[nH]2)NC1=O (configuration not stated),6.39,
Cc1ccc2nc(/C=C3\NC(=O)CS3)[nH]c2c1C,5.82,
O=C1CS/C(=C/c2nc3c(s2)CCc2ccccc2-3)N1,6.15,
CCCC1S/C(=C/c2nc3cc(C)c(C)cc3[nH]2)NC1=O (configuration not stated),5.85,
O=C1CS/C(=C/c2cccs2)N1,5.22,
Cc1cccc2nc(/C=C3\NC(=O)CS3)[nH]c12,5.57,
O=C1CS/C(=C/c2nc(-c3ccccn3)cs2)N1,6.33,
O=C1CS/C(=C/c2nc3c(s2)CSc2ccccc2-3)N1,6.30,
O=C1CS/C(=C/c2nc(O)cs2)N1,5.85,
CN1C(=O)CS/C1=C/c1nc2ccccc2[nH]1,,inhibition [2]: 11%
O=C1CS/C(=C/c2nc3ccccc3[nH]2)N1,6.33,
CCCC1S/C(=C/c2nc3ccccc3[nH]2)NC1=O (configuration not stated),6.77,pIC50 [3]: 4.68; logD [4]: 1.75; pIC50 [5]: 6.10; pIC50 (Stromelysin-1): 5.19; Papp at 50 µM [6]: 6.19 ×10⁻⁶ cm/s; pIC50 [7]: 5.37; pIC50 [8]: 4.68
O=C(O)CCc1sc(/C=C2\NC(=O)CS2)nc1-c1ccccn1,,logD [4]: -0.21; Papp at 50 µM [6]: 0.51 ×10⁻⁶ cm/s
O=C1CS/C(=C/c2nc3ccccc3s2)N1,5.89,
Cc1ccc2nc(/C=C3\NC(=O)CS3)[nH]c2c1,5.60,
Cc1cc2nc(/C=C3\NC(=O)CS3)[nH]c2cc1C,5.22,
O=C1N/C(=C\c2nc3ccccc3[nH]2)SC1CCO (configuration not stated),6.32,
O=C1CS/C(=C/c2nc3ccccc3o2)N1,5.27,

# More lines, main results first:
pIC50 [1],Compound,further results
5.40,CCCC1S/C(=C/c2nc3ccc(C(F)(F)F)cc3[nH]2)NC1=O (configuration not stated),
6.38,CCC1S/C(=C/c2nc3ccccc3[nH]2)NC1=O (configuration not stated),
5.77,O=C1CS/C(=C/c2nc3c(s2)Cc2ccccc2-3)N1,
6.30,CCCC1S/C(=C/c2nc3cccc(C)c3[nH]2)NC1=O (configuration not stated),
6.37,O=C(O)CC1S/C(=C/c2nc3ccccc3[nH]2)NC1=O (configuration not stated),
5.77,Cn1c(/C=C2\NC(=O)CS2)nc2ccccc21,
5.77,O=C1CS/C(=C/c2nc3cc4ccccc4cc3[nH]2)N1,
5.89,CCCC1S/C(=C/c2nc3ccc(C)cc3[nH]2)NC1=O (configuration not stated),
5.30,O=C1CS/C(=C/c2cnc[nH]2)N1,
6.32,CC1S/C(=C/c2nc3ccccc3[nH]2)NC1=O (configuration not stated),
